Patent US11976062B2, “Benzisoxazole compound” (OSAKA UNIVERSITY, priority 2018, dated 2024)

Target: T1, TRPC6 channel (Homo sapiens, UniProt Q9Y210)
T1 construct: expressed in transfected cells; host or cells: HEK293
T1 sequence (Q9Y210 1-931): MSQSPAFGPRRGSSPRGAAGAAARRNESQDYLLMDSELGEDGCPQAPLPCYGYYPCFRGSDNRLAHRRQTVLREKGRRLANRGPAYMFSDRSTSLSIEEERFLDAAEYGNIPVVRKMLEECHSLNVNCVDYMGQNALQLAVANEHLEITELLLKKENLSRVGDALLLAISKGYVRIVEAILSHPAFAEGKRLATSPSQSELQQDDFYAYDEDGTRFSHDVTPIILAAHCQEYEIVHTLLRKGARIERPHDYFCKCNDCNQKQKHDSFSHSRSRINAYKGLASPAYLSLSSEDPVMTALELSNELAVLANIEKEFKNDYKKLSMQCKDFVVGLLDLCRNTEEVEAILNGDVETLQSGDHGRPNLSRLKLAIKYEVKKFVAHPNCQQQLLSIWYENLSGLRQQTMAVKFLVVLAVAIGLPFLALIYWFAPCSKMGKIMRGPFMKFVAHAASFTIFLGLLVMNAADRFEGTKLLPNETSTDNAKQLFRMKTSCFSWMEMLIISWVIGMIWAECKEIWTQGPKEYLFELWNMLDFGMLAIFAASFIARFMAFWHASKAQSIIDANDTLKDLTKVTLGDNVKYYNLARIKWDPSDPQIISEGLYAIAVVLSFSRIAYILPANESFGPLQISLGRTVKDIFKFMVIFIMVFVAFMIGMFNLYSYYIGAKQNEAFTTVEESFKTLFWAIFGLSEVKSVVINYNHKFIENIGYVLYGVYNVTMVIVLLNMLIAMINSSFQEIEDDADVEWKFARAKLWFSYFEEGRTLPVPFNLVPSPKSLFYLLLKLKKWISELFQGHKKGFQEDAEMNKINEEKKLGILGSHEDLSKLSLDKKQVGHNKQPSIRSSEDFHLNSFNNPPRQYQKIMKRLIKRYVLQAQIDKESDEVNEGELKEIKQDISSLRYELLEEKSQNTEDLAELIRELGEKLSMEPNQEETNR
Test: Calcium assay using HEK293 cells transiently expressing TRPC6 channel, carbachol activation (Fura-2)
Type: cell-based
Method: A TRPC6 gene was introduced into HEK293 cells (cells derived from human fetal kidney) by lipofection, and the TRPC6 channel was expressed on the cell membrane. Specifically, the plasmid DNA of TRPC6 (pCI-neo; Promega Corporation) was introduced into HEK293 cells using a lipofection reagent, and then cultured at 37° C. for 24 to 48 hours to express the TRPC6 channel on the cell membrane. In the same manner, HEK293 cells into which the TRPC3 gene was introduced were cultured, and the TRPC3 channel was expressed on the cell membrane.
The cultured cells were peeled off with trypsin and seeded on a cover glass again, followed by culturing the cells at 37° C. for 3 hours again. A Fura-2 AM calcium indicator was added to the medium, and the cells were cultured at 37° C. for 30 minutes to allow the cells to incorporate the indicator. For the extracellular solution, a Ca^2+-containing solution and a Ca^2+-free solution were prepared. • Ca^2+-containing solution: 2 mM CaCl2, 132 mM NaCl, 4 mM KCl, 1 mM MgCl2, 5 mM glucose, 5 mM HEPES (pH 7.4) • Ca^2+-free solution: 132 mM NaCl, 4 mM KCl, 1 mM MgCl2, 5 mM glucose, 5 mM HEPES (pH 7.4)
After the cells were added to the Ca^2+-containing solution, the following operation was performed while the fluorescence intensity (510 nm) of Fura-2 was measured at room temperature with an ARGUS CA-20 (Hamamatsu Photonics K.K.) over time. • 0 minutes: TRPC3-expressing cells or TRPC6-expressing cells are placed in a measurement chamber that contains the Ca^2+-containing solution. • After 30 seconds: The Ca^2+-containing solution is replaced with the Ca^2+-free solution. • After 1 minute: A predetermined amount of a test compound is added to the Ca^2+-free solution. • After 3 minutes: Carbachol (100 μM) is added to the Ca^2+-free solution. • After 7 minutes: The Ca^2+-free solution is replaced with the Ca^2+-containing solution that contains a test compound and carbachol […]. • After 15 minutes: Measurement is ended.
Compound 011 was used as the test compound, and the amount of the test compound added was 0.01, 0.1, 0.5, 1.0, 5.0, 10, or 50 μM. For the control, 0.1% DMSO was used in place of the test compound. Carbachol (cch) is a TRPC-channel-activating reagent. Applying carbachol to cells opens the TRPC channel and allows a large amount of Ca^2+ in the extracellular solution to flow into the cells. Fura-2 AM has high cell membrane permeability due to the presence of an AM group (acetoxymethyl group), and is thus easily incorporated into the cells. The AM group is hydrolyzed in the cells to become Fura-2. Thus, Fura-2 can form a chelate with Ca^2+ and is also unlikely to leak out of the cells due to the loss of the AM group.
In the same manner as in Test Example 1, the maximum calcium ion concentration was measured after 7 minutes from the start of measurement (i.e., after replacement with the Ca^2+-containing solution) by using TRPC6-expressing cells prepared in the same manner as in Test Example 1, except that 10 μM of Pyr 4 and 10 μM of compound 011, 031, 041, or 191 (test compound) were used. The average value of calcium ion concentrations up to 30 seconds after the start of measurement (the initial value of calcium ion concentration) was subtracted from the maximum calcium ion concentration, and the calculated value was determined to be the amount of increase in calcium ions. FIG. 3 illustrates the results.
The calcium ion concentration was measured in the same manner as in Test Example 2, except that 10 μM of compound 011, 361, 362(E), 362(Z), 371, 372(Z), 381, or 401 (test compound) was used, and Pyr 4 was not used, thereby determining the amount of increase in calcium ions. Table 2 illustrates the amount of increase in calcium ions for each test compound relative to the amount of increase in calcium ions in the control (DMSO) taken as 100%.

amount of increase in calcium ions relative to control (DMSO) taken as 100% (10 μM test compound, carbachol, TRPC6-expressing cells): 21% | Ca2+ concentration in the cells reached after addition of carbachol (TRPC6, FIG. 1, from about 100 nM, control (DMSO) about 280 nM): about 140 nM | IC50 (TRPC6-expressing HEK293 cells, carbachol 100 μM, from concentration-response curves, read-out: IC50 for inhibition of the TRPC6 channel): 4.6 µM
SMILES: O=C(O)c1cnc(N2CCN(c3noc4cccc(C(F)(F)F)c34)CC2)c(Cl)c1 [Compound 011, 5-chloro-6-(4-(4-(trifluoromethyl)benzo[d]isoxazol-3-yl)piperazin-1-yl) nicotinic acid]
suppression of TRPC6 channel activation (decrease in calcium ion influx, FIG. 3) (10 μM test compound, carbachol): activation of the TRPC6 channel was suppressed
